Results: ChEMBL document CHEMBL4417636, “Small molecule inhibitors of pendrin ion exchange and pharmaceutical compositions” (2017)
Calls of active or inactive are those of the source. No cut-off for these calls is given here.

Key:
[1] = tested on: Mus musculus; assay: Potentiation of 20 mg/kg, ip furosemide-induced acute diuretic action in CD1 mouse assessed as effect on urine pH at 50 mg/kg, ip relative to control; type: functional, organism-based
[2] = species on record: Homo sapiens; assay: Effect on airway surface liquid pH in IL13-stimulated human CFBE at 25 uM by pH-sensitive fluorophore BCECF based fluorescence based assay; type: functional
[3] = species on record: Homo sapiens; assay: Effect on airway surface liquid depth in NHBE cells at 25 uM by rhodamine B-dextran fluorescence based confocal microscopy; type: functional, cell-based
[4] = species on record: Homo sapiens; assay: Effect on airway surface liquid pH in NHBE cells at 25 uM by pH-sensitive fluorophore BCECF based fluorescence based assay; type: functional, cell-based
[5] = biological target: T1, Pendrin (Homo sapiens) (UniProt O43511); assay: Inhibition of pendrin in human bronchial epithelial cells assessed as increase in airway surface liquid depth at 25 uM by rhodamine B-dextran fluorescence based confocal microscopy (reference value: -16 um)
T1 sequence (whole entry): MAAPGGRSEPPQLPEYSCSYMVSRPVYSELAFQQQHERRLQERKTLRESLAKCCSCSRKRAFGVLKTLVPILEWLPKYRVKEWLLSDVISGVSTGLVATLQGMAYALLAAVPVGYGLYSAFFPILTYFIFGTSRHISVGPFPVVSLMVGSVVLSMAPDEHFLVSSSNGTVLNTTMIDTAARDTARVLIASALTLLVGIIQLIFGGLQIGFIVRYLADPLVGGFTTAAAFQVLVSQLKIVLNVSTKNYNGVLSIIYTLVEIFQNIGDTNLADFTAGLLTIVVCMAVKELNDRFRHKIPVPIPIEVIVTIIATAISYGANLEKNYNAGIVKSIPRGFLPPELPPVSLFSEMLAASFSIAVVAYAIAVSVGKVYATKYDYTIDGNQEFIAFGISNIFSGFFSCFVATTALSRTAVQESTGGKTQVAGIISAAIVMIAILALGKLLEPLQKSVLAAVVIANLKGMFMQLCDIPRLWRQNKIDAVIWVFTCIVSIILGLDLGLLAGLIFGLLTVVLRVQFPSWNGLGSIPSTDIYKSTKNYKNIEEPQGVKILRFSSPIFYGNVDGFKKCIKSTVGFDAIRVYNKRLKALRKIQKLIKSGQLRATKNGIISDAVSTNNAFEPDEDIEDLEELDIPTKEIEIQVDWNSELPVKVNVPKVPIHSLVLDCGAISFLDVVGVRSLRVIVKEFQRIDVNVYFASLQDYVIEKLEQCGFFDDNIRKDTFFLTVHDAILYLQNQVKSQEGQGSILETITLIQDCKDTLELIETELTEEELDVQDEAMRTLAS

[6] = biological target: Cystic fibrosis transmembrane conductance regulator (Homo sapiens) (UniProt P13569); assay: Inhibition of CFTR in human bronchial epithelial cells assessed as effect on short-circuit current at 25 uM pre-incubated for 30 mins
Chain of Cystic fibrosis transmembrane conductance regulator (Homo sapiens) (P13569 whole entry, looked up): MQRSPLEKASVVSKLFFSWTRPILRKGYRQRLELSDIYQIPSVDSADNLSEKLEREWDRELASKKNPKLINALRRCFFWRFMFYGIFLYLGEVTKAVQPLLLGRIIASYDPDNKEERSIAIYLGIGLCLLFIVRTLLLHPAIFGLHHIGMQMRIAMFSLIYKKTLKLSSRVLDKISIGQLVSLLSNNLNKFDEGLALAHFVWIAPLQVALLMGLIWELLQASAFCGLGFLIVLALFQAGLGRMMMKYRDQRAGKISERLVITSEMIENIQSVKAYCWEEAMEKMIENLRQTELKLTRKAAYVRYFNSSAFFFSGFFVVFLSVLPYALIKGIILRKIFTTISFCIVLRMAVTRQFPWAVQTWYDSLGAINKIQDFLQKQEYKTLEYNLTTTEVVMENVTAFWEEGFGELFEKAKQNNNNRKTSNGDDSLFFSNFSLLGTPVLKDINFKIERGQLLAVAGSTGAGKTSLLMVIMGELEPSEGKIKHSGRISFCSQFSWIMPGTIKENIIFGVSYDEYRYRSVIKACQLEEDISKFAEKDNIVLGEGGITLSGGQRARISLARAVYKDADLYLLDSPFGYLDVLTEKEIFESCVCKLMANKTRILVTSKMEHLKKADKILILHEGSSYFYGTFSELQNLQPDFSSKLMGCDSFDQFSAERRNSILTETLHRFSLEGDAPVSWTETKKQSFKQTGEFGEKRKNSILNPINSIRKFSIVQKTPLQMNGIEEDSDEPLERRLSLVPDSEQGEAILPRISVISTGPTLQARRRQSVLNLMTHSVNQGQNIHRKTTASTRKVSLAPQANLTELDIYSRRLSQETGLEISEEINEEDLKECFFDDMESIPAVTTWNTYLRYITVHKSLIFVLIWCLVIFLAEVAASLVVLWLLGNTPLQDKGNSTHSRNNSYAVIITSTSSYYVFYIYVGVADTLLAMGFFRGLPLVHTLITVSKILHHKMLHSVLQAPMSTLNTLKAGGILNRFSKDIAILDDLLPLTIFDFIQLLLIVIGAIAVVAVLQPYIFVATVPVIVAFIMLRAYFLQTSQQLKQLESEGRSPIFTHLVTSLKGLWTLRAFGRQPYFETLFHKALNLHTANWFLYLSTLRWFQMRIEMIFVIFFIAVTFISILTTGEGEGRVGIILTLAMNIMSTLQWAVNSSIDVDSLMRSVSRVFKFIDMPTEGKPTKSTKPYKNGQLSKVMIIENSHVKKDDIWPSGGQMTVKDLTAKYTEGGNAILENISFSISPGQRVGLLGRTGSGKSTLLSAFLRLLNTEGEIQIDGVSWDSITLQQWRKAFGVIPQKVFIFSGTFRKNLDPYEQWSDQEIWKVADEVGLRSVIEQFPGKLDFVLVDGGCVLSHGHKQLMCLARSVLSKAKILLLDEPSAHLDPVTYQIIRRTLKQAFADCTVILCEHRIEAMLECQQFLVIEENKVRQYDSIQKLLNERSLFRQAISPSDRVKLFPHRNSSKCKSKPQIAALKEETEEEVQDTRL

Row | Activity [5] [µm] | inhibition [6] | Compound | Activity [1] | Activity [2] | Activity [3] | Activity [4]
1 | – | – | Cc1n[nH]c(-c2cc(S(=O)(=O)NC3CCCc4ccccc43)c(C)s2)c1C (stereo unspecified) | inactive | – | – | –
2 | -8 | inactive | Cn1nc(COc2cccc(F)c2)c2c1CCN(C(=O)Nc1ccc(Cl)cc1)C2 | – | inactive | inactive | inactive
